molecular target: Factor D (Homo sapiens, UniProt P00746); test: Factor D esterolytic assay (Z-Lys-SBzl thioester substrate, DTNB, 405 nm); type: biochemical; settings: substrate Z-Lys-SBzl 1.29 mM, 100 mM HEPES, 500 mM NaCl, pH 7.5, 10% DMSO, tested a minimum of three times
In short: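 Human Factor D hydrolysis of Z-Lys-SBzl (1.29 mM) monitored at 405 nm via DTNB thiol detection for 600 s, 690 nm background subtracted. Buffer 100 mM HEPES, 500 mM NaCl, pH 7.5, 10% DMSO; substrate added immediately or after room-temperature preincubation. IC50 from percent inhibition of rate, at least three tests.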

Chain of Factor D (P00746 26-253): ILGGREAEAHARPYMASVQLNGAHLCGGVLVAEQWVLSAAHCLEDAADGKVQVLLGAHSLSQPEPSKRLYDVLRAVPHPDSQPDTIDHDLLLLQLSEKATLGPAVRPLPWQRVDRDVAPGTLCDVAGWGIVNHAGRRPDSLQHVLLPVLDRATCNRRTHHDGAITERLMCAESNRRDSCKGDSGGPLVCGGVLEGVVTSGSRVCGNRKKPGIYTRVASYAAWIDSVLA

`C[C@@]12C[C@@H](C(=O)Nc3cccc(Br)n3)N(C(=O)Cn3c4ccc(-c5ccccc5)nc4c4c(N)ncnc43)[C@@H]1C2` [Compound 299a, (1R,3S,5R)-2-(2-(4-amino-6-phenyl-9H-pyrido[2′,3′:4,5]pyrrolo[2,3-d]pyrimidin-9-yl)acetyl)-N-(6-bromopyridin-2-yl)-5-methyl-2-azabicyclo[3.1.0]hexane-3-carboxamide] and `Nc1ncnc2c1c1nc(-c3ccncc3)ccc1n2CC(=O)N1[C@@H]2C[C@@H]2C[C@H]1C(=O)Nc1cccc(Br)n1` [Compound 307c, (1R,3S,5R)-2-(2-(4-amino-6-(pyridin-4-yl)-9H-pyrido[2′,3′:4,5]pyrrolo[2,3-d]pyrimidin-9-yl)acetyl)-N-(6-bromopyridin-2-yl)-2-azabicyclo[3.1.0]hexane-3-carboxamide] cannot be ordered by IC50: < 100 nM for the first, < 100 nM for the second.

`Cc1cc(C(F)(F)F)cc2c3c(N)ncnc3n(CC(=O)N3C[C@H](F)C[C@H]3C(=O)Nc3cccc(Cl)n3)c12` [Compound 300a, (2S,4R)-1-(2-(4-amino-8-methyl-6-(trifluoromethyl)-9H-pyrimido[4,5-b]indol-9-yl)acetyl)-N-(6-chloropyridin-2-yl)-4-fluoropyrrolidine-2-carboxamide] and `Cc1cc(C(F)(F)F)cc2c3c(N)ncnc3n(CC(=O)N3C[C@H](F)C[C@H]3C(=O)Nc3cccc(Br)n3)c12` [Compound 301a, (2S,4R)-1-(2-(4-amino-8-methyl-6-(trifluoromethyl)-9H-pyrimido[4,5-b]indol-9-yl)acetyl)-N-(6-bromopyridin-2-yl)-4-fluoropyrrolidine-2-carboxamide] cannot be ordered by IC50: < 100 nM for the first, < 100 nM for the second.

`Cc1ccc(Br)nc1NC(=O)[C@@H]1C[C@@]2(C)C[C@H]2N1C(=O)Cn1c2ncnc(N)c2c2cc(C(F)(F)F)cc(C)c21` [Compound 302a, (1R,3S,5R)-2-(2-(4-amino-8-methyl-6-(trifluoromethyl)-9H-pyrimido[4,5-b]indol-9-yl)acetyl)-N-(6-bromo-3-methylpyridin-2-yl)-5-methyl-2-azabicyclo[3.1.0]hexane-3-carboxamide] and `Cc1ccc(Br)nc1NC(=O)[C@@H]1C[C@H]2C[C@H]2N1C(=O)Cn1c2ncnc(N)c2c2cc(C(F)(F)F)cc(C)c21` [Compound 303a, (1R,3S,5R)-2-(2-(4-amino-8-methyl-6-(trifluoromethyl)-9H-pyrimido[4,5-b]indol-9-yl)acetyl)-N-(6-bromo-3-methylpyridin-2-yl)-2-azabicyclo[3.1.0]hexane-3-carboxamide] cannot be ordered by IC50: < 100 nM for the first, < 100 nM for the second.

`Cc1cc(C(F)(F)F)cc2c3c(N)ncnc3n(CC(=O)N3C[C@](C)(F)C[C@H]3C(=O)Nc3cccc(Br)n3)c12` [Compound 304a, (2S,4R)-1-(2-(4-amino-8-methyl-6-(trifluoromethyl)-9H-pyrimido[4,5-b]indol-9-yl)acetyl)-N-(6-bromopyridin-2-yl)-4-fluoro-4-methylpyrrolidine-2-carboxamide] and `Cc1cc(C(F)(F)F)cc2c3c(N)ncnc3n(CC(=O)N3C[C@](C)(F)C[C@H]3C(=O)Nc3cccc(Cl)n3)c12` [Compound 320c, (2S,4R)-1-(2-(4-amino-8-methyl-6-(trifluoromethyl)-9H-pyrimido[4,5-b]indol-9-yl)acetyl)-N-(6-chloropyridin-2-yl)-4-fluoro-4-methylpyrrolidine-2-carboxamide] cannot be ordered by IC50: < 100 nM for the first, < 100 nM for the second.

`Cc1cc(C(F)(F)F)cc2c3c(N)ncnc3n(CC(=O)N3C[C@](C)(F)C[C@H]3C(=O)Nc3cncc(Br)n3)c12` [Compound 305a, (2S,4R)-1-(2-(4-amino-8-methyl-6-(trifluoromethyl)-9H-pyrimido[4,5-b]indol-9-yl)acetyl)-N-(6-bromopyrazin-2-yl)-4-fluoro-4-methylpyrrolidine-2-carboxamide] and `Cc1cc(C(F)(F)F)cc2c3c(N)ncnc3n(CC(=O)N3C[C@H](F)C[C@H]3C(=O)Nc3cncc(Br)n3)c12` [Compound 321d, (2S,4R)-1-(2-(4-amino-8-methyl-6-(trifluoromethyl)-9H-pyrimido[4,5-b]indol-9-yl)acetyl)-N-(6-bromopyrazin-2-yl)-4-fluoropyrrolidine-2-carboxamide] cannot be ordered by IC50: < 100 nM for the first, < 100 nM for the second.

First: Cc1cc(C(F)(F)F)cc2c3c(N)ncnc3n(CC(=O)N3CCC[C@H]3C(=O)Nc3cccc(Br)n3)c12 [Compound 306a, (S)-1-(2-(4-amino-8-methyl-6-(trifluoromethyl)-9H-pyrimido[4,5-b]indol-9-yl)acetyl)-N-(6-bromopyridin-2-yl)pyrrolidine-2-carboxamide]
Second: Cc1cc(C(F)(F)F)cc2c3c(N)ncnc3n(CC(=O)N3[C@@H]4C[C@@H]4C[C@H]3C(=O)Nc3nc(Br)ccc3F)c12 [Compound 317c, (1R,3S,5R)-2-(2-(4-amino-8-methyl-6-(trifluoromethyl)-9H-pyrimido[4,5-b]indol-9-yl)acetyl)-N-(6-bromo-3-fluoropyridin-2-yl)-2-azabicyclo[3.1.0]hexane-3-carboxamide]
The IC50 of the first is lower: < 100 nM for the first, 100 to 1000 nM for the second. The first is the more potent here.

`Cc1ncc(-c2cc(C)c3c(c2)c2c(N)ncnc2n3CC(=O)N2[C@@H]3C[C@@H]3C[C@H]2C(=O)Nc2cccc(Br)n2)cn1` [Compound 308c, (1R,3S,5R)-2-(2-(4-amino-8-methyl-6-(2-methylpyrimidin-5-yl)-9H-pyrimido[4,5-b]indol-9-yl)acetyl)-N-(6-bromopyridin-2-yl)-2-azabicyclo[3.1.0]hexane-3-carboxamide] and `Cc1ncc(-c2cc(C)c3c(c2)c2c(N)ncnc2n3CC(=O)N2[C@@H]3C[C@@H]3C[C@H]2C(=O)Nc2nc(Br)ccc2C)cn1` [Compound 310a, (1R,3S,5R)-2-(2-(4-amino-8-methyl-6-(2-methylpyrimidin-5-yl)-9H-pyrimido[4,5-b]indol-9-yl)acetyl)-N-(6-bromo-3-methylpyridin-2-yl)-2-azabicyclo[3.1.0]hexane-3-carboxamide] cannot be ordered by IC50: < 100 nM for the first, < 100 nM for the second.

`Cc1ncc(-c2cc(C)c3c(c2)c2c(N)ncnc2n3CC(=O)N2[C@H](C(=O)Nc3cccc(Br)n3)C[C@@]3(C)C[C@@H]23)cn1` [Compound 309a, (1R,3S,5R)-2-(2-(4-amino-8-methyl-6-(2-methylpyrimidin-5-yl)-9H-pyrimido[4,5-b]indol-9-yl)acetyl)-N-(6-bromopyridin-2-yl)-5-methyl-2-azabicyclo[3.1.0]hexane-3-carboxamide] and `Cc1ncc(-c2cc(C)c3c(c2)c2c(N)ncnc2n3CC(=O)N2[C@H](C(=O)Nc3cccc(Cl)n3)C[C@@]3(C)C[C@@H]23)cn1` [Compound 315a, (1R,3S,5R)-2-(2-(4-amino-8-methyl-6-(2-methylpyrimidin-5-yl)-9H-pyrimido[4,5-b]indol-9-yl)acetyl)-N-(6-chloropyridin-2-yl)-5-methyl-2-azabicyclo[3.1.0]hexane-3-carboxamide] cannot be ordered by IC50: < 100 nM for the first, < 100 nM for the second.

`Cc1ncc(-c2cc(C)c3c(c2)c2c(N)ncnc2n3CC(=O)N2[C@H](C(=O)Nc3nc(Br)ccc3C)C[C@@]3(C)C[C@@H]23)cn1` [Compound 311a, (1R,3S,5R)-2-(2-(4-amino-8-methyl-6-(2-methylpyrimidin-5-yl)-9H-pyrimido[4,5-b]indol-9-yl)acetyl)-N-(6-bromo-3-methylpyridin-2-yl)-5-methyl-2-azabicyclo[3.1.0]hexane-3-carboxamide] and `Cc1ncc(-c2cc(C)c3c(c2)c2c(N)ncnc2n3CC(=O)N2C[C@](C)(F)C[C@H]2C(=O)Nc2cccc(Br)n2)cn1` [Compound 316a, (2S,4R)-1-(2-(4-amino-8-methyl-6-(2-methylpyrimidin-5-yl)-9H-pyrimido[4,5-b]indol-9-yl)acetyl)-N-(6-bromopyridin-2-yl)-4-fluoro-4-methylpyrrolidine-2-carboxamide] cannot be ordered by IC50: < 100 nM for the first, < 100 nM for the second.

`Cc1ncc(-c2cc(C)c3c(c2)c2c(N)ncnc2n3CC(=O)N2C[C@H](F)C[C@H]2C(=O)Nc2cccc(Br)n2)cn1` [Compound 312a, (2S,4R)-1-(2-(4-amino-8-methyl-6-(2-methylpyrimidin-5-yl)-9H-pyrimido[4,5-b]indol-9-yl)acetyl)-N-(6-bromopyridin-2-yl)-4-fluoropyrrolidine-2-carboxamide] and `Cc1cc(C)c2c(c1)c1c(N)ncnc1n2CC(=O)N1[C@H](C(=O)Nc2cncc(Br)n2)C[C@@]2(C)C[C@@H]12` [Compound 314a, (1R,3S,5R)-2-(2-(4-amino-6,8-dimethyl-9H-pyrimido[4,5-b]indol-9-yl)acetyl)-N-(6-bromopyrazin-2-yl)-5-methyl-2-azabicyclo[3.1.0]hexane-3-carboxamide] cannot be ordered by IC50: < 100 nM for the first, < 100 nM for the second.

`Cc1ncc(NC(=O)[C@@H]2C[C@H]3C[C@H]3N2C(=O)Cn2c3ncnc(N)c3c3cc(C(F)(F)F)cc(C)c32)nc1Br` [Compound 313b, (1R,3S,5R)-2-(2-(4-amino-8-methyl-6-(trifluoromethyl)-9H-pyrimido[4,5-b]indol-9-yl)acetyl)-N-(6-bromo-5-methylpyrazin-2-yl)-2-azabicyclo[3.1.0]hexane-3-carboxamide] and `Cc1ccc(Cl)nc1NC(=O)[C@@H]1C[C@H]2C[C@H]2N1C(=O)Cn1c2ncnc(N)c2c2cc(C(F)(F)F)cc(C)c21` [Compound 318c, (1R,3S,5R)-2-(2-(4-amino-8-methyl-6-(trifluoromethyl)-9H-pyrimido[4,5-b]indol-9-yl)acetyl)-N-(6-chloro-3-methylpyridin-2-yl)-2-azabicyclo[3.1.0]hexane-3-carboxamide] cannot be ordered by IC50: < 100 nM for the first, < 100 nM for the second.

With `Cc1cc(C(F)(F)F)cc2c3c(N)ncnc3n(CC(=O)N3[C@@H]4C[C@@H]4C[C@H]3C(=O)Nc3nc(Cl)ccc3F)c12` [Compound 319c, (1R,3S,5R)-2-(2-(4-amino-8-methyl-6-(trifluoromethyl)-9H-pyrimido[4,5-b]indol-9-yl)acetyl)-N-(6-chloro-3-fluoropyridin-2-yl)-2-azabicyclo[3.1.0]hexane-3-carboxamide] the IC50 was < 100 nM.

— patent US12679843B2, “Pyrrolopyrimidine amines as complement inhibitors” (BioCryst Pharmaceuticals, Inc., priority 2020, dated 2026)
